Assay results from patent US20240150282A1, “NOVEL CRYSTALLINE COMPOUND OF SIPONIMOD HEMIFUMARATE” (OLON S.P.A., priority 2021, published 2024).

Assays:
[1] = Stability of the crystalline form during isolation and drying; format: physicochemical
From the text: According to another of its aspects, subject-matter of the invention is a process for the preparation of the NP01 Form of Siponimod Hemifumarate, comprising carrying out the steps (a) and (b) stated above for the preparation of the NP04 Form.

[2] = Stability assays of the NP04 Form (storage, humidity, shredding, compression); format: physicochemical
Procedure: Stability assays of the NP04 Form
Aliquots of the compound obtained from Example 1 were subjected to the following assays: • closed in a sealed bottle for 8 days • at 25° C. with 100% relative humidity for 7 days • at 25° C. with 60% relative humidity for 7 days • at 60° C. with 75% relative humidity for 3 days • shredding treatment • Compression test under 1, 2 and 3 tons

stability of the crystalline form [1]	solid form stability (form recovered after treatment) ([2]; 25° C. with 60% relative humidity for 7 days)	solid form stability (form recovered after treatment) ([2]; 25° C. with 100% relative humidity for 7 days)	solid form stability (form recovered after treatment) ([2]; 60° C. with 75% relative humidity for 3 days)	solid form stability (form recovered after treatment) ([2]; closed in a sealed bottle for 8 days)	solid form stability (form recovered after treatment) ([2]; compression test under 1, 2 and 3 tons)	solid form stability (form recovered after treatment) ([2]; shredding treatment)	SMILES
unstable and converts to the NP04 Form							CCc1cc(/C(C)=N/OCc2ccc(C3CCCCC3)c(C(F)(F)F)c2)ccc1CN1CC(C(=O)O)C1 [NP01 Form, Siponimod Hemifumarate]
	stable	stable	stable	stable	stable	stable	CCc1cc(/C(C)=N/OCc2ccc(C3CCCCC3)c(C(F)(F)F)c2)ccc1CN1CC(C(=O)O)C1 [NP04 Form, Siponimod Hemifumarate]
